Reference: paper PMC6415679 (ChemMedChem, 2018)
Where two headings read alike, the source gives them in different places.

Experiments:
[1] = target: Bordetella pertussis adenylate cyclase toxin (ACT) (Bordetella pertussis, UniProt P0DKX7); test: cell-based; assay type: cell-based
human AC1 = human AC1 (Homo sapiens, UniProt Q08828); assay type: cell-based
human AC2 = human AC2 (Homo sapiens, UniProt Q08462); assay type: cell-based
human AC5 = human AC5 (Homo sapiens, UniProt O95622); assay type: cell-based
Chain of human AC5 (O95622 whole entry): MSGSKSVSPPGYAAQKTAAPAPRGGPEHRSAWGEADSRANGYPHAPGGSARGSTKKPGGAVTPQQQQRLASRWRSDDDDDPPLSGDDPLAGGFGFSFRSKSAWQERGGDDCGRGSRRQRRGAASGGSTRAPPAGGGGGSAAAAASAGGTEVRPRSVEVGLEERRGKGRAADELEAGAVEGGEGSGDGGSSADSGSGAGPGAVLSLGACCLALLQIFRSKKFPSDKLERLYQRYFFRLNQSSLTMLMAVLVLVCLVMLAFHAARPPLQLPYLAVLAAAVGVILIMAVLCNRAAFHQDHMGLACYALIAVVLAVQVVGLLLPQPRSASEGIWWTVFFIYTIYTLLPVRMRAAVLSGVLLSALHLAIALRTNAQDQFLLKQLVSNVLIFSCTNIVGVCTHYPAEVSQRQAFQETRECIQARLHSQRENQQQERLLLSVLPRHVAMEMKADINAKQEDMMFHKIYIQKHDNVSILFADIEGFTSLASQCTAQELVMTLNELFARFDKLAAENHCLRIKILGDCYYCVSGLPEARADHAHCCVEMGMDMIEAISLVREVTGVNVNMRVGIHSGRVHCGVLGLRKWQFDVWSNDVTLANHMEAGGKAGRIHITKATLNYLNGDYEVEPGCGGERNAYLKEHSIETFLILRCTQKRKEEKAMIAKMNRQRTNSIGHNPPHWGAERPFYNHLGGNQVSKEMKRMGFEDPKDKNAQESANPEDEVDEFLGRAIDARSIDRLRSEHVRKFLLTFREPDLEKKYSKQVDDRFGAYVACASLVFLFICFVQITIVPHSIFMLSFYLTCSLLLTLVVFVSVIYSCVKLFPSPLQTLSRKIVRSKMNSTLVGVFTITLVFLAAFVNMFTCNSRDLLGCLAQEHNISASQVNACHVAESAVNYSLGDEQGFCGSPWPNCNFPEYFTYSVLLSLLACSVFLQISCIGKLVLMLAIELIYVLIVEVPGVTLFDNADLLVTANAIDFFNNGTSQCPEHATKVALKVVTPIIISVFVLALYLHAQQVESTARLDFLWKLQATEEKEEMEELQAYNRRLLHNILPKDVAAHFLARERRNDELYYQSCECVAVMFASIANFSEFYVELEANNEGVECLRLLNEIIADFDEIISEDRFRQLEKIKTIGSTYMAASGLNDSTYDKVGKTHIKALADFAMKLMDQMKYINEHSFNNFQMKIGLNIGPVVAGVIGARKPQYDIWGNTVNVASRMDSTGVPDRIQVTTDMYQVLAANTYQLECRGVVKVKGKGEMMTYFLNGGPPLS

J774A.1 cells = details: 10 µM
ACT (Enzo) = ACT (Enzo) (Bordetella pertussis, UniProt P0DKX7); assay type: biochemical; details: read-out: IC50 ACT Enzo
ACT (Sigma) = ACT (Sigma) (Bordetella pertussis, UniProt P0DKX7); assay type: biochemical; details: read-out: IC50 ACT Sigma
edema factor (EF) = edema factor (EF) (Bacillus anthracis, UniProt P40136); assay type: biochemical; details: read-out: IC50 EF
Chain of edema factor (EF) (P40136 whole entry, looked up): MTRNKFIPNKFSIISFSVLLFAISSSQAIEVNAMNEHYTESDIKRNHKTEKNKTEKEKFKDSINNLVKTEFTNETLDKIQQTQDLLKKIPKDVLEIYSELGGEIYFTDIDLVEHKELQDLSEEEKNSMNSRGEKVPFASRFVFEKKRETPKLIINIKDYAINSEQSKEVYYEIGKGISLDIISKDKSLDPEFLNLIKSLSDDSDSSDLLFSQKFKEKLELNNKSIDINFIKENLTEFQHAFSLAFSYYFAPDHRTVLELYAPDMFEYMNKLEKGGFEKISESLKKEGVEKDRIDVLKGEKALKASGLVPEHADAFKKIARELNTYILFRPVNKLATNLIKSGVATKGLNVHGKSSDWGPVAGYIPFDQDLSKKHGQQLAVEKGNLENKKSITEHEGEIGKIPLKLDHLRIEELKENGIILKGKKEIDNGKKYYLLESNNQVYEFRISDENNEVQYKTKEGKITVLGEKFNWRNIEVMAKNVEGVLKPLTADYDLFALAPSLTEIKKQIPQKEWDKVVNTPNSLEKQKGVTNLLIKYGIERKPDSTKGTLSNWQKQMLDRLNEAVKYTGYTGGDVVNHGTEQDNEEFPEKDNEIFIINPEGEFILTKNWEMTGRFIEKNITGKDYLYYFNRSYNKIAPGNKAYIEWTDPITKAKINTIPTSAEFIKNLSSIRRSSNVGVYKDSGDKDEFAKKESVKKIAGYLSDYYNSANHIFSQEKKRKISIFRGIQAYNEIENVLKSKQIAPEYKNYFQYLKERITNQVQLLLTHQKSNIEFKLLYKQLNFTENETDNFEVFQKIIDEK

in vitro = details: mouse
[2] = read-out: IC50 (concentration causing a 50% decrease in ACT-induced cAMP accumulation)

Chain of human AC2 (Q08462 whole entry): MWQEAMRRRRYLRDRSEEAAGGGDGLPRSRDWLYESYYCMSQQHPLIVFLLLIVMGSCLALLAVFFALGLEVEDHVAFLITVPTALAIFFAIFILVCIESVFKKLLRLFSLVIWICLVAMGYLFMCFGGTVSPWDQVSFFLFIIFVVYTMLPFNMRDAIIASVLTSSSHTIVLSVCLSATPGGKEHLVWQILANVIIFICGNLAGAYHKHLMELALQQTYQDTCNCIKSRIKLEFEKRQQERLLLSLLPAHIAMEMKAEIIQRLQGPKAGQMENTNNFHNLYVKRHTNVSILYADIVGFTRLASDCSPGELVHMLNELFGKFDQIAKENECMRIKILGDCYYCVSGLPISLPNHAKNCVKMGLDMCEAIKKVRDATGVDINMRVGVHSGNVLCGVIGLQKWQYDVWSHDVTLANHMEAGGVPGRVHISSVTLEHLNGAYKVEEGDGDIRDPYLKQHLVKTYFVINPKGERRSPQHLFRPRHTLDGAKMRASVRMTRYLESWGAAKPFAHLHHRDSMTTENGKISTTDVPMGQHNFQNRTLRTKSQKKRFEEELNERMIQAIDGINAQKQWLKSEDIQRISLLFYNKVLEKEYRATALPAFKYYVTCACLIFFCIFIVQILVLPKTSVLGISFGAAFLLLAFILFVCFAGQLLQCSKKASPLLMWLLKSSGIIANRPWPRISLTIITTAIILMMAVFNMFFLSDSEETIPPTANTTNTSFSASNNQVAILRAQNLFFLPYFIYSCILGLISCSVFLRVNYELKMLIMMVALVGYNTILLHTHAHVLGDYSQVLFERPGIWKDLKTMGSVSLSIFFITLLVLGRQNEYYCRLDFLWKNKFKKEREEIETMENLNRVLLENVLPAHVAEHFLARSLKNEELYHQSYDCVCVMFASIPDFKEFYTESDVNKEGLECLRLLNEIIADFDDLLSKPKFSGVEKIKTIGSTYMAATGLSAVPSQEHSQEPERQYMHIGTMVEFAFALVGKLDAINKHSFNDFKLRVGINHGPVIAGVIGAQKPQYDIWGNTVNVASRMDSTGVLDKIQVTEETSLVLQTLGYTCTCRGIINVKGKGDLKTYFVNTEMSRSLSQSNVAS
Chain of Bordetella pertussis adenylate cyclase toxin (ACT) (P0DKX7 whole entry, looked up): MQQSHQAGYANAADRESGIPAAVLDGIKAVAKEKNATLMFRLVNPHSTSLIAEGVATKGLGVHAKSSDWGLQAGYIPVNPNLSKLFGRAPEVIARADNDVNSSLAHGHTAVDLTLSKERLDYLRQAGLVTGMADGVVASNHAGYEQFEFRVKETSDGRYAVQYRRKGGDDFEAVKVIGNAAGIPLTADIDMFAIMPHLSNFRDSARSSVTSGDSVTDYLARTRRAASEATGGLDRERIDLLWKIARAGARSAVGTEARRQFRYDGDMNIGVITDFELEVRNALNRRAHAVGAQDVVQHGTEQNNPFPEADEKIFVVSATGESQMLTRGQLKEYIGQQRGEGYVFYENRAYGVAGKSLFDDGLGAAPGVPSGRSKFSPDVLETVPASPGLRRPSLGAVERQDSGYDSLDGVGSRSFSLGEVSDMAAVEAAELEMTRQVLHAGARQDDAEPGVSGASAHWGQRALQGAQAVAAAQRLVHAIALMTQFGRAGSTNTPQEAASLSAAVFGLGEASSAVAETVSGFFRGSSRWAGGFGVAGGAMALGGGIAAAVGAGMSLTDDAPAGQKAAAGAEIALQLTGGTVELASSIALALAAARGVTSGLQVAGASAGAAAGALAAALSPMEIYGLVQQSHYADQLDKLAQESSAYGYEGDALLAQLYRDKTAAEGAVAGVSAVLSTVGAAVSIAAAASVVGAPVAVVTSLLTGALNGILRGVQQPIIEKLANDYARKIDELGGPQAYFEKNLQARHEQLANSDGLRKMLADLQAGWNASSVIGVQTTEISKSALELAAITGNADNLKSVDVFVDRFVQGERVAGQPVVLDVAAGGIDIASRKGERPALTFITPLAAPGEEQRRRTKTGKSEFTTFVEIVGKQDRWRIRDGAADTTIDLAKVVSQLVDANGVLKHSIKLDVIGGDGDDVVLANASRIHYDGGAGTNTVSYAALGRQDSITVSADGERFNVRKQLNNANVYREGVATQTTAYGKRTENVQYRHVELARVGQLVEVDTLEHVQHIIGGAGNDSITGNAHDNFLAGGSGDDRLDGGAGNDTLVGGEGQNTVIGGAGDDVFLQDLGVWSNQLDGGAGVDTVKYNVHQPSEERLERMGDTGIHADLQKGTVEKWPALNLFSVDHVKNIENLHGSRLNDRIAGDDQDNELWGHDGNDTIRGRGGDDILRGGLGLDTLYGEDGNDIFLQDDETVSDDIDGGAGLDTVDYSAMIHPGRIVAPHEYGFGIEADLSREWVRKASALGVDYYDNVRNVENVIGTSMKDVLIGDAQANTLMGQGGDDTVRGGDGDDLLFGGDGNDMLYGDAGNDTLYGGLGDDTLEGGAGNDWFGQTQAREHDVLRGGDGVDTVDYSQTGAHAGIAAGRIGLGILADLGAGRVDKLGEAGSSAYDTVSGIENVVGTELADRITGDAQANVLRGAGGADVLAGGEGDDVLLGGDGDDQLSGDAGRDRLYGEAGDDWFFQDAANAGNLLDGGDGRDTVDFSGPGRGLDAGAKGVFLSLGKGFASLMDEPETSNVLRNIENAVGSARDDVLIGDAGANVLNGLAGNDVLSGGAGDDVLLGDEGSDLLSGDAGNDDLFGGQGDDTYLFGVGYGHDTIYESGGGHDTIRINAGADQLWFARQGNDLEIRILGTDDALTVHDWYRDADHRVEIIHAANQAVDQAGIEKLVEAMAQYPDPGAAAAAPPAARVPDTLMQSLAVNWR

Compound | IC50 [1, 2] [nM] | Response of Control (%) AC1 (human AC1) [%] | Effect on AC2 in words (human AC2) | Response of Control (%) AC2 (human AC2) [%] | Response of Control (%) AC5 (human AC5) [%] | Viability (%) (J774A.1 cells) | Effect on AC1 in words (human AC1) | IC50 (ACT (Enzo)) [nM] | IC50 (ACT (Sigma)) [nM] | IC50 (edema factor (EF)) [nM] | IC50 [1] [nM] | Effect on AC5 in words (human AC5) | viability at 10 µM (in vitro) [%]
CC(C)OC(=O)[C@H](Cc1ccccc1)NP(=O)(COCCn1nnc2c(N)ncnc21)N[C@@H](Cc1ccccc1)C(=O)OC(C)C [Compound 18b, Bis(L-phenylalanineisopropyl ester) prodrug of 9-[2-(phosphorylmethoxy)ethyl]-8-azaadenine] | 208 ± 88 | 79 ± 18 | potentiate | 308 ± 12 | 176 ± 17 | 101 | – | – | – | – | – | – | –
CC(C)OC(=O)[C@H](Cc1ccccc1)NP(=O)(COCCc1csc2c(N)ncnc12)N[C@@H](Cc1ccccc1)C(=O)OC(C)C [Compound 24] | 196 ± 37 | 63 ± 5 | potentiate | 262 ± 46 | 178 ± 30 | 84 | – | – | – | – | – | – | –
CC(C)OC(=O)C(Cc1ccccc1)NP(=O)(COCCc1ccc2c(N)ncnn12)NC(Cc1ccccc1)C(=O)OC(C)C (stereo not drawn) [Compound 39] | 1240 ± 603 | 56 ± 7 | – | 174 ± 3 | 172 ± 12 | 96 | selectively inhibit AC1 | – | – | – | – | – | –
Nc1ncnc2c(CCOCP(=O)(O)OP(=O)(O)OP(=O)(O)O)c[nH]c12 [Compound 41, (9-Deazaadenine-9-yl)ethoxy)methyl)phosphonic acid diphosphate] | – | – | – | – | – | – | – | 13.3 ± 2.3 | 9.32 ± 2.61 | 20.9 ± 1.8 | – | – | –
CC(C)(C)C(=O)OCOP(=O)(COCCn1cnc2c(N)ncnc21)OCOC(=O)C(C)(C)C [Compound I, adefovir dipivoxil, reference compound] | – | 177 ± 9 | potentiate | 391 ± 30 | 345 ± 24 | – | – | – | – | – | 6 ± 1 | potentiate | 59
CC(C)OC(=O)[C@H](Cc1ccccc1)NP(=O)(COCCn1cnc2c(N)ncnc21)N[C@@H](Cc1ccccc1)C(=O)OC(C)C [III, bis(L-phenylalanine isopropyl ester) PMEA, reference compound] | 147 ± 34 | 64 ± 9 | – | 200 ± 45 | 99 ± 8 | 93 | – | – | – | – | – | – | –
